As a reminder, the IC50 is the point on the concentration scale where inhibition reaches its midpoint.

Experiment [1] has as its target biotinylated human Gal-3 (hGal-3) (Homo sapiens, UniProt P17931). In words: Competitive binding assay: biotinylated hGal-3 binding to microplate-adsorbed asialofetuin (ASF), spectrophotometric. In a few lines: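 Competitive binding of biotinylated hGal-3 to plate-adsorbed asialofetuin was measured with serially diluted compounds over 3 h at 4° C. Bound protein was detected with streptavidin-peroxidase and ABTS substrate by absorbance. IC50 values are means of several measurements.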

The target in experiment [2] is human Gal-1 (hGal-1) (Homo sapiens, UniProt P09382). In words: Competitive binding assay: biotinylated hGal-1 binding to microplate-adsorbed asialofetuin (ASF), spectrophotometric. The settings on record: hGal-1 binding to asialofetuin; Table 15; R and S epimers of selected Examples also listed; read-out: IC50 (Galectin-1 inhibition). In a few lines: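 Biotinylated hGal-1 (300-1000 ng/mL) incubated with compound on asialofetuin-coated plates 3 hours at 4 °C, washed, then streptavidin-peroxidase (80 ng/mL) 1 hour at 4 °C. ABTS substrate read spectrophotometrically; IC50 reported as mean of several measurements.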
Sequence of human Gal-1 (hGal-1) (P09382 whole entry): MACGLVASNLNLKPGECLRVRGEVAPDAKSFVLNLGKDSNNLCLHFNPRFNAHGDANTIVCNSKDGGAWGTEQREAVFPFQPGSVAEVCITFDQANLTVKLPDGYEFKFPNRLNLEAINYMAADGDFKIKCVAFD

Setting [3] is: Gal-3 inhibition, Table 5, read-out: IC50.
[4] abbreviates: Table 11, hGal-3, read-out: IC50 (Gal-3 inhibition).
Setting [5] is: Table 12, hGal-3, read-out: IC50 (Gal-3 inhibition).
Setting [6] is: Gal-3 inhibition, Table 4, read-out: IC50.

The structures appear in SMILES notation. Where two headings read alike, the source gives them in different places.

Sequence of biotinylated human Gal-3 (hGal-3) (P17931 whole entry): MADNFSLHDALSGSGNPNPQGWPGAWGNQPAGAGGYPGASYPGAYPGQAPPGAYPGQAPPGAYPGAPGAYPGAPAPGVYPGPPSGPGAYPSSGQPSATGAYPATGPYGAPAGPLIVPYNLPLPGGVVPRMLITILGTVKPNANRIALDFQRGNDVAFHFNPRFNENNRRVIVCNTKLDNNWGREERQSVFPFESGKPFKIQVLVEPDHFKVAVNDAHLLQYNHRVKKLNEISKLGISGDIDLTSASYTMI

With `CO[C@@H]1[C@@H](n2cc(-c3cc(F)c(F)c(F)c3)nn2)[C@@H](O)[C@@H](CO)O[C@H]1S[C@@H](C(=O)N1CCC(F)(F)CC1)C1(O)CCC2(CCOCC2)CC1` [Example 2.72.226R.I., (R)-1-(4,4-Difluoropiperidin-1-yl)-2-(((2S,3R,4S,5R,6R)-5-hydroxy-6-(hydroxymethyl)-3-methoxy-4-(4-(3,4,5-trifluorophenyl)-1H-1,2,3-triazol-1-yl)tetrahydro-2H-pyran-2-yl)thio)-2-(9-hydroxy-3-oxaspiro[5.5]undecan-9-yl)ethan-1-one], the IC50 in experiment [1] (Table 13, hGal-3, read-out: IC50 (Gal-3 inhibition)) was 14900 nM; in experiment [2], 39600 nM.
With `CN(CC(C)(C)C)C(=O)[C@H](S[C@@H]1O[C@H](CO)[C@H](O)[C@H](n2cc(-c3cc(F)c(F)c(F)c3)nn2)[C@H]1O)C1(O)CCC1` [Example 2.34.228R., (R)-2-(((2S,3R,4S,5R,6R)-3,5-Dihydroxy-6-(hydroxymethyl)-4-(4-(3,4,5-trifluorophenyl)-1H-1,2,3-triazol-1-yl)tetrahydro-2H-pyran-2-yl)thio)-2-(1-hydroxycyclobutyl)-N-methyl-N-neopentylacetamide], the IC50 came out at 5900 nM in experiment [1] (setting [3]) and 22600 nM in experiment [2].
For the compound `CN(C(=O)[C@H](S[C@@H]1O[C@H](CO)[C@H](O)[C@H](n2cc(-c3cc(F)c(F)c(F)c3)nn2)[C@H]1O)C1(O)CCOCC1)c1ccccc1` [Example 2.41.231R.], the IC50 is 3440 nM in experiment [1] (Table 9, hGal-3, read-out: IC50 (Gal-3 inhibition)) and 8260 nM in experiment [2].
`CCN(C)C(=O)C(S[C@@H]1O[C@H](CO)[C@H](O)[C@H](n2cc(-c3cc(F)c(F)c(Cl)c3)nn2)[C@H]1O)C1(O)CCOCC1` (stereo partly drawn) [Example 15.41.203., 2-(((2S,3R,4S,5R,6R)-4-(4-(3-Chloro-4,5-difluorophenyl)-1H-1,2,3-triazol-1-yl)-3,5-dihydroxy-6-(hydroxymethyl)tetrahydro-2H-pyran-2-yl)thio)-N-ethyl-2-(4-hydroxytetrahydro-2H-pyran-4-yl)-N-methylacetamide]: the IC50 in experiment [1] (setting [4]) came out at 60 nM; in experiment [2], 80 nM.
With `CCN(C)C(=O)C(S[C@@H]1O[C@H](CO)[C@H](O)[C@H](n2cc(-c3ccc(Br)c(F)c3)nn2)[C@H]1O)C1(O)CCOCC1` (stereo partly drawn) [Example 12.41.203., 2-(((2S,3R,4S,5R,6R)-4-(4-(4-Bromo-3-fluorophenyl)-1H-1,2,3-triazol-1-yl)-3,5-dihydroxy-6-(hydroxymethyl)tetrahydro-2H-pyran-2-yl)thio)-N-ethyl-2-(4-hydroxytetrahydro-2H-pyran-4-yl)-N-methylacetamide], the figures for the IC50 in experiment [1] (setting [4]) and in experiment [2] were 40 nM and 360 nM, respectively.
Consider `CO[C@@H]1[C@@H](n2cc(-c3cc(F)c(F)c(F)c3)nn2)[C@@H](O)[C@@H](CO)O[C@H]1SC(C(=O)N(C)C1CCOCC1)C1(O)CCC(F)(F)CC1` (stereo partly drawn) [Example 2.44.213.I., 2-(4,4-Difluoro-1-hydroxycyclohexyl)-2-(((2S,3R,4S,5R,6R)-5-hydroxy-6-(hydroxymethyl)-3-methoxy-4-(4-(3,4,5-trifluorophenyl)-1H-1,2,3-triazol-1-yl)tetrahydro-2H-pyran-2-yl)thio)-N-methyl-N-(tetrahydro-2H-pyran-4-yl)acetamide], for which the IC50 stood at 70 nM in experiment [1] (setting [5]) and 150 nM in experiment [2].
As for `O=C(C(S[C@@H]1O[C@H](CO)[C@H](O)[C@H](n2cc(-c3cc(F)c(F)c(F)c3)nn2)[C@H]1O)C1(O)CCC1)N1CCC1` (stereo partly drawn) [Example 2.34.206., 1-(Azetidin-1-yl)-2-(((2S,3R,4S,5R,6R)-3,5-dihydroxy-6-(hydroxymethyl)-4-(4-(3,4,5-trifluorophenyl)-1H-1,2,3-triazol-1-yl)tetrahydro-2H-pyran-2-yl)thio)-2-(1-hydroxycyclobutyl)ethan-1-one], the IC50 came out at 1200 nM in experiment [1] (setting [3]) and 2710 nM in experiment [2].
With `CC1CN(C(=O)[C@@H](S[C@@H]2O[C@H](CO)[C@H](O)[C@H](n3cc(-c4cc(F)c(F)c(F)c4)nn3)[C@H]2O)C2(O)CCOCC2)C1` [Example 2.41.205S., (S)-2-(((2S,3R,4S,5R,6R)-3,5-Dihydroxy-6-(hydroxymethyl)-4-(4-(3,4,5-trifluorophenyl)-1H-1,2,3-triazol-1-yl)tetrahydro-2H-pyran-2-yl)thio)-2-(4-hydroxytetrahydro-2H-pyran-4-yl)-1-(3-methylazetidin-1-yl)ethan-1-one], the IC50 in experiment [1] (setting [6]) was found to be 120 nM; in experiment [2] it was 550 nM.
For the compound `CCN(C)C(=O)C(S[C@@H]1O[C@H](CO)[C@H](O)[C@H](n2cc(-c3cc(F)c(F)c(F)c3)nn2)[C@H]1O)C1(O)CCCC1` (stereo partly drawn) [Example 2.38.203., 2-(((2S,3R,4S,5R,6R)-3,5-Dihydroxy-6-(hydroxymethyl)-4-(4-(3,4,5-trifluorophenyl)-1H-1,2,3-triazol-1-yl)tetrahydro-2H-pyran-2-yl)thio)-N-ethyl-2-(1-hydroxycyclopentyl)-N-methylacetamide], the figures for the IC50 in experiment [1] (setting [3]) and in experiment [2] were 430 nM and 1130 nM, respectively.
`CO[C@@H]1[C@@H](n2cc(-c3cc(F)c(F)c(F)c3)nn2)[C@@H](O)[C@@H](CO)O[C@H]1SC(C(=O)N1CCOCC1)C1(O)CCC(F)(F)CC1` (stereo partly drawn) [Example 2.44.244.I., 2-(4,4-Difluoro-1-hydroxycyclohexyl)-2-(((2S,3R,4S,5R,6R)-5-hydroxy-6-(hydroxymethyl)-3-methoxy-4-(4-(3,4,5-trifluorophenyl)-1H-1,2,3-triazol-1-yl)tetrahydro-2H-pyran-2-yl)thio)-1-morpholinoethan-1-one]: the half-inhibitory concentration (IC50) in experiment [1] (setting [5]) turned out to be 70 nM; in experiment [2], 100 nM.
Take `CCN(C)C(=O)C(S[C@@H]1O[C@H](CO)[C@H](O)[C@H](n2cc(-c3cc(F)c(F)c(F)c3)nn2)[C@H]1O)C1(O)CCC1` (stereo partly drawn) [Example 2.34.203., 2-(((2S,3R,4S,5R,6R)-3,5-Dihydroxy-6-(hydroxymethyl)-4-(4-(3,4,5-trifluorophenyl)-1H-1,2,3-triazol-1-yl)tetrahydro-2H-pyran-2-yl)thio)-N-ethyl-2-(1-hydroxycyclobutyl)-N-methylacetamide]: the IC50 amounted to 400 nM in experiment [1] (setting [3]) and 640 nM in experiment [2].
On to `CCN(CC)C(=O)C(S[C@@H]1O[C@H](CO)[C@H](O)[C@H](n2cc(-c3cc(F)c(F)c(F)c3)nn2)[C@H]1O)C1(O)CCOCC1` (stereo partly drawn) [Example 2.41.202., 2-(((2S,3R,4S,5R,6R)-3,5-Dihydroxy-6-(hydroxymethyl)-4-(4-(3,4,5-trifluorophenyl)-1H-1,2,3-triazol-1-yl)tetrahydro-2H-pyran-2-yl)thio)-N,N-diethyl-2-(4-hydroxytetrahydro-2H-pyran-4-yl)acetamide], for which the IC50 in experiment [1] (setting [6]) came to 50 nM; in experiment [2] it was 110 nM.
For `CO[C@@H]1[C@@H](n2cc(-c3cc(F)c(F)c(F)c3)nn2)[C@@H](O)[C@@H](CO)O[C@H]1SC(C(=O)NCC(F)(F)F)C1(O)CCC(F)(F)CC1` (stereo partly drawn) [Example 2.44.254.I., 2-(4,4-Difluoro-1-hydroxycyclohexyl)-2-(((2S,3R,4S,5R,6R)-5-hydroxy-6-(hydroxymethyl)-3-methoxy-4-(4-(3,4,5-trifluorophenyl)-1H-1,2,3-triazol-1-yl)tetrahydro-2H-pyran-2-yl)thio)-N-(2,2,2-trifluoroethyl)acetamide], the values for the IC50 in experiment [1] (setting [5]) and in experiment [2] were 130 nM and 300 nM, respectively.
As for `CO[C@@H]1[C@@H](n2cc(-c3cc(F)c(F)c(F)c3)nn2)[C@@H](O)[C@@H](CO)O[C@H]1SC(C(=O)NCCC(C)(C)C)C1(O)CCC(F)(F)CC1` (stereo partly drawn) [Example 2.44.252.I., 2-(4,4-Difluoro-1-hydroxycyclohexyl)-N-(3,3-dimethylbuty1)-2-(((2S,3R,4S,5R,6R)-5-hydroxy-6-(hydroxymethyl)-3-methoxy-4-(4-(3,4,5-trifluorophenyl)-1H-1,2,3-triazol-1-yl)tetrahydro-2H-pyran-2-yl)thio)acetamide], the IC50 turned out to be 320 nM in experiment [1] (setting [5]) and 830 nM in experiment [2].
As to `CN(CC1(F)CCCC1)C(=O)C(S[C@@H]1O[C@H](CO)[C@H](O)[C@H](n2cc(-c3cc(F)c(F)c(F)c3)nn2)[C@H]1O)C1(O)CCC(F)(F)CC1` (stereo partly drawn) [Example 2.44.223R., 2-(4,4-Difluoro-1-hydroxycyclohexyl)-2-(((2S,3R,4S,5R,6R)-3,5-dihydroxy-6-(hydroxymethyl)-4-(4-(3,4,5-trifluorophenyl)-1H-1,2,3-triazol-1-yl)tetrahydro-2H-pyran-2-yl)thio)-N-((1-fluorocyclopentyl)methyl)-N-methylacetamide], the IC50 worked out at 3570 nM in experiment [1] (setting [3]) and 13400 nM in experiment [2].
As to `O=C(C(S[C@@H]1O[C@H](CO)[C@H](O)[C@H](n2cc(-c3cc(F)c(F)c(F)c3)nn2)[C@H]1O)C1(O)CCOCC1)N1CCc2ccccc21` (stereo partly drawn) [Example 2.41.209., 2-(((2S,3R,4S,5R,6R)-3,5-Dihydroxy-6-(hydroxymethyl)-4-(4-(3,4,5-trifluorophenyl)-1H-1,2,3-triazol-1-yl)tetrahydro-2H-pyran-2-yl)thio)-2-(4-hydroxytetrahydro-2H-pyran-4-yl)-1-(indolin-1-yl)ethan-1-one], the IC50 came out at 150 nM in experiment [1] (setting [6]) and 310 nM in experiment [2].
As for `CO[C@@H]1[C@@H](n2cc(-c3cc(F)c(F)c(F)c3)nn2)[C@@H](O)[C@@H](CO)O[C@H]1SC(C(=O)N(C)C1CCC(C)(C)CC1)C1(O)CCC(F)(F)CC1` (stereo partly drawn) [Example 2.44.246.I., 2-(4,4-Difluoro-1-hydroxycyclohexyl)-N-(4,4-dimethylcyclohexyl)-2-(((2S,3R,4S,5R,6R)-5-hydroxy-6-(hydroxymethyl)-3-methoxy-4-(4-(3,4,5-trifluorophenyl)-1H-1,2,3-triazol-1-yl)tetrahydro-2H-pyran-2-yl)thio)-N-methylacetamide], the IC50 in experiment [1] (setting [5]) worked out at 320 nM; in experiment [2], 1200 nM.

The values above are taken from US12410208B2, “(2-acetamidyl)thio-beta-D-galactopyranoside derivatives” (Idorsia Pharmaceuticals Ltd, priority 2020, dated 2025).
